Results published in patent publication US9333193B2, “Compositions and methods for treating tuberculosis” (priority 2010, dated 2016).
Converted amounts (≈) assume the structure as drawn. Where two headings read alike, the source gives them in different places.

Assays:
[1] = tested on: Mycobacterium tuberculosis; assay: microbe, parasite or virus in culture; settings: agar proportion
M. tuberculosis = assay: microbe, parasite or virus in culture; type: cell-based, Mycobacterium tuberculosis; set-up: % Inhibit growth, H37Rv / % Inhibit growth, Susceptible / % Inhibit growth, MDR / % Inhibit growth, XDR / inhibition: dose or concentration left out as unconfirmed; settings: for inhibition: Mycobacterium tuberculosis; for % Inhibit growth, MDR: MDR strain; for % Inhibit growth, MDR / % Inhibit growth, Susceptible / % Inhibit growth, XDR / % Inhibit growth, H37Rv / Potency against M. tuberculosis in words (Table 1): agar proportion method; for % Inhibit growth, Susceptible: Susceptible strain; for % Inhibit growth, XDR: XDR strain; for % Inhibit growth, H37Rv: strain H37Rv
[2] = tested on: Mycobacterium smegmatis mc2155; assay: Anti-mycobacterial activity of nitazoxanides, MIC in Middlebrook 7H9; type: cell-based; settings: Middlebrook 7H9, 37° C.; for MIC: Mycolicibacterium smegmatis, MC2155, read-out: Minimal Inhibitory Concentration, M. smegmatis
Experimental: (§1) (1) Strains: Mycobacterium smegmatis mc2155, Mycobacterium chelonae EOP-1, Mycobacterium marinum ATCC 927, Mycobacterium avium Va14(T), and Mycobacterium abscessus AAy-P-1).
(§2) (2) Medium: Middlebrook 7H9 containing 0.5% (vol/vol) glycerol and 10% (vol/vol) oleic acid-albumin.
(§3) (3) Incubation Temperature: 37° C., except M. marinum 30° C.
(§4) (4) Nitazoxanides: Precipitates were present in wells of nitazoxanides with high concentrations (250-31 μg/mL) except for 162080, 162088, 16b2026, and 16b2031.
(5) Decolorization: Almost all the yellow nitazoxanides, namely 16b1090, 16b1092 and 16b1093, 16b1094, 16b2023, 16b2025, and 16b2026 were decolorized by M. smegmatis strain mc2155. None of the other mycobacterial strains decolorized the compounds. Note that the compound numbers are also referred to herein with the prefix VPC.
(§5) The strains used were Mycobacterium smegmatis mc2155, Mycobacterium chelonae EOP-1, Mycobacterium marinum ATCC 927, Mycobacterium avium Va14(T), and Mycobacterium abscessus AAy-P-1. The medium use was Middlebrook 7H9 containing 0.5% (vol/vol) glycerol and 10% (vol/vol) oleic acid-albumin. Incubation Temperature was 37° C., except for M. marinum at 30° C. For nitazoxanides, precipitates were present in wells of nitazoxanides with high concentrations (250-31 μg/mL) except for 162080, 162088, 16b2026, and 16b2031.
Decolorization: Almost all the yellow nitazoxanides, namely 16b1090, 16b1092 and 16b1093, 16b1094, 16b2023, 16b2025, and 16b2026 were decolorized by M. smegmatis strain mc2155. None of the other mycobacterial strains decolorized the compounds.

[3] = tested on: Mycobacterium marinum ATCC 927; assay: as above; type: cell-based; settings: Middlebrook 7H9, 30° C.; for MIC: Mycobacterium marinum, ATCC927, read-out: Minimal Inhibitory Concentration, M. marinum
Experimental: as §1, §2, §3, §4, §5

[4] = tested on: Mycobacterium avium Va14(T); assay: as above; type: cell-based; settings: Middlebrook 7H9, 37° C.; for MIC: Mycobacterium avium, read-out: Minimal Inhibitory Concentration, M. avium
Experimental: as §1, §2, §3, §4, §5

[5] = tested on: Mycobacterium abscessus AAy-P-1; assay: as above; type: cell-based; settings: Middlebrook 7H9, 37° C.; for MIC: Mycobacteroides abscessus, AAYP1, read-out: Minimal Inhibitory Concentration, M. abscessus
Experimental: as §1, §2, §3, §4, §5

[6] = tested on: Mycobacterium chelonae EOP-1; assay: as above; type: cell-based; settings: Middlebrook 7H9, 37° C.; for MIC: read-out: Minimal Inhibitory Concentration, M. chelonae
Experimental: as §1, §2, §3, §4, §5

[7] = H37RV, isolate H37Rv (Reference)
[8] = read-out: % Inhibit growth, MDR
[9] = read-out: % Inhibit growth, XDR

NNC(=O)c1ccncc1 [Isoniazid, reference compound]
MIC [1, 7]: ≤ 125 µg/mL | MIC ([1]; isolate 234 (MDR-TB)): 16000 µg/mL (≈ 117000 µM) | MIC ([1]; isolate 283 (susceptible)): ≤ 125 µg/mL | MIC ([1]; isolate 565 (MDR-TB)): 8000 µg/mL (≈ 58300 µM) | MIC ([1]; isolate 694 (MDR-TB)): 16000 µg/mL (≈ 117000 µM) | MIC ([1]; isolate 750 (MDR-TB)): 8000 µg/mL (≈ 58300 µM) | MIC ([1]; isolate 823 (XDR-TB)): 8000 µg/mL (≈ 58300 µM) | MIC ([1]; isolate 971 (MDR-TB)): 4000 µg/mL (≈ 29200 µM)

CO[C@H]1/C=C/O[C@@]2(C)Oc3c(C)c(O)c4c(O)c(c(/C=N/N5CCN(C)CC5)c(O)c4c3C2=O)NC(=O)/C(C)=C\C=C\[C@H](C)[C@H](O)[C@@H](C)[C@@H](O)[C@@H](C)[C@H](OC(C)=O)[C@@H]1C [Rifampin, reference compound]
MIC [1, 7]: ≤ 125 µg/mL | MIC ([1]; isolate 234 (MDR-TB)): 16000 µg/mL (≈ 19400 µM) | MIC ([1]; isolate 283 (susceptible)): ≤ 125 µg/mL | MIC ([1]; isolate 565 (MDR-TB)): ≥ 32000 µg/mL | MIC ([1]; isolate 694 (MDR-TB)): ≥ 32000 µg/mL | MIC ([1]; isolate 750 (MDR-TB)): ≥ 32000 µg/mL | MIC ([1]; isolate 823 (XDR-TB)): ≥ 32000 µg/mL | MIC ([1]; isolate 971 (MDR-TB)): ≥ 32000 µg/mL

O=C(Nc1ncc([N+](=O)[O-])s1)c1ccc(Cl)c(C(F)(F)F)c1 [VPC16a1060, 4-Chloro-N-(5-nitrothiazol-2-yl)-3-(trifluoromethyl)benzamide]
inhibition (M. tuberculosis; [8]): 98% | inhibition (M. tuberculosis; [9]): 90%

CCCCCC(=O)Nc1sc([N+](=O)[O-])cc1[N+](=O)[O-] [VPC16b1089]
Minimal Inhibitory Concentration, M. smegmatis [2]: 125 µg/mL | % Inhibit growth, MDR (M. tuberculosis): 0% | % Inhibit growth, Susceptible (M. tuberculosis): 0% | % Inhibit growth, XDR (M. tuberculosis): 0% | % Inhibit growth, H37Rv (M. tuberculosis): 0% | Minimal Inhibitory Concentration, M. marinum [3]: 16 µg/mL | Minimal Inhibitory Concentration, M. avium [4]: 63 µg/mL | Minimal Inhibitory Concentration, M. abscessus [5]: 4. μg/mL | Minimal Inhibitory Concentration, M. chelonae [6]: 31 µg/mL

O=C(Nc1sc([N+](=O)[O-])cc1[N+](=O)[O-])c1ccccc1 [VPC16b1090]
MIC [2]: 16 µg/mL (≈ 54.6 µM) | MIC [1, 7]: 4000 µg/mL (≈ 13600 µM) | MIC ([1]; isolate 234 (MDR-TB)): 4000 µg/mL (≈ 13600 µM) | MIC ([1]; isolate 283 (susceptible)): 4000 µg/mL (≈ 13600 µM) | MIC ([1]; isolate 565 (MDR-TB)): 4000 µg/mL (≈ 13600 µM) | MIC ([1]; isolate 694 (MDR-TB)): 2000 µg/mL (≈ 6820 µM) | MIC ([1]; isolate 750 (MDR-TB)): 4000 µg/mL (≈ 13600 µM) | MIC ([1]; isolate 823 (XDR-TB)): 4000 µg/mL (≈ 13600 µM) | MIC ([1]; isolate 971 (MDR-TB)): 2000 µg/mL (≈ 6820 µM) | inhibition (M. tuberculosis; [8]): 100% | inhibition (M. tuberculosis; [9]): 100% | Potency against M. tuberculosis in words (Table 1) (M. tuberculosis): most potent | MIC [3]: 4 µg/mL (≈ 13.6 µM) | MIC [4]: 8 µg/mL (≈ 27.3 µM) | MIC [5]: 0.5 µg/mL (≈ 1.7 µM) | MIC [6]: 1 µg/mL (≈ 3.41 µM)

O=C(Nc1sc([N+](=O)[O-])cc1[N+](=O)[O-])c1cccs1 [VPC16b1093, N-(3,5-Dinitrothiophen-2-yl)thiophene-2-carboxamide]
MIC [2]: 125 µg/mL (≈ 418 µM) | inhibition (M. tuberculosis; [8]): 100% | inhibition (M. tuberculosis; [9]): 100% | MIC [3]: 31 µg/mL (≈ 104 µM) | MIC [4]: 31 µg/mL (≈ 104 µM) | MIC [5]: 1 µg/mL (≈ 3.34 µM) | MIC [6]: 2 µg/mL (≈ 6.68 µM)

O=C(Nc1sc([N+](=O)[O-])cc1[N+](=O)[O-])c1ccoc1 [VPC16b1094]
MIC [2]: 16 µg/mL (≈ 56.5 µM) | MIC [1, 7]: 4000 µg/mL (≈ 14100 µM) | MIC ([1]; isolate 234 (MDR-TB)): 4000 µg/mL (≈ 14100 µM) | MIC ([1]; isolate 283 (susceptible)): 4000 µg/mL (≈ 14100 µM) | MIC ([1]; isolate 565 (MDR-TB)): 4000 µg/mL (≈ 14100 µM) | MIC ([1]; isolate 694 (MDR-TB)): 4000 µg/mL (≈ 14100 µM) | MIC ([1]; isolate 750 (MDR-TB)): 4000 µg/mL (≈ 14100 µM) | MIC ([1]; isolate 823 (XDR-TB)): 4000 µg/mL (≈ 14100 µM) | MIC ([1]; isolate 971 (MDR-TB)): 4000 µg/mL (≈ 14100 µM) | inhibition (M. tuberculosis; [8]): 100% | inhibition (M. tuberculosis; [9]): 100% | Potency against M. tuberculosis in words (Table 1) (M. tuberculosis): most potent | MIC [3]: 4 µg/mL (≈ 14.1 µM) | MIC [4]: 16 µg/mL (≈ 56.5 µM) | MIC [5]: 2 µg/mL (≈ 7.06 µM) | MIC [6]: 2 µg/mL (≈ 7.06 µM)

O=C(Nc1sc([N+](=O)[O-])cc1[N+](=O)[O-])c1cc(C(F)(F)F)ccc1Cl [VPC16b2026, 2-Chloro-N-(3,5-dinitrothiophen-2-yl)-5-(trifluoromethyl)benzamide]
MIC [2]: 31 µg/mL (≈ 78.3 µM) | MIC [3]: 8 µg/mL (≈ 20.2 µM) | MIC [4]: 16 µg/mL (≈ 40.4 µM) | MIC [5]: 0.25 µg/mL (≈ 0.632 µM) | MIC [6]: 4 µg/mL (≈ 10.1 µM)

NCCOc1ccccc1C(=O)Nc1sc([N+](=O)[O-])cc1[N+](=O)[O-] [VPC16b2031, 2-(2-Aminoethoxy)-N-(3,5-dinitrothiophen-2-yl)benzamide]
MIC [2]: 63 µg/mL (≈ 179 µM) | MIC [3]: 16 µg/mL (≈ 45.4 µM) | MIC [4]: 63 µg/mL (≈ 179 µM) | MIC [5]: 250 µg/mL (≈ 710 µM) | MIC [6]: 125 µg/mL (≈ 355 µM)

O=C(Nc1ncc([N+](=O)[O-])s1)c1cc2ccccc2s1 [VPC161180]
% Inhibit growth, MDR (M. tuberculosis): 0% | % Inhibit growth, Susceptible (M. tuberculosis): 0% | % Inhibit growth, XDR (M. tuberculosis): 50% | % Inhibit growth, H37Rv (M. tuberculosis): 80%

O=C(Nc1ncc([N+](=O)[O-])s1)c1cccc(C(F)(F)F)c1 [VPC161183, N-(5-Nitrothiazol-2-yl)-3-(trifluoromethyl)benzamide]
inhibition (M. tuberculosis; [8]): 70% | inhibition (M. tuberculosis; [9]): 50%

CC(C)(C)OC(=O)Nc1ccccc1C(=O)Nc1ncc([N+](=O)[O-])s1 [VPC162047, tert-Butyl 2-(5-nitrothiazol-2-ylcarbamoyl)phenylcarbamate]
inhibition (M. tuberculosis; [8]): 92% | inhibition (M. tuberculosis; [9]): 50%

CCCCCC(=O)Nc1nc(Cl)c([N+](=O)[O-])s1 [VPC162080]
Minimal Inhibitory Concentration, M. smegmatis [2]: 125 µg/mL | % Inhibit growth, MDR (M. tuberculosis): 95% | % Inhibit growth, Susceptible (M. tuberculosis): 73% | % Inhibit growth, XDR (M. tuberculosis): 90% | % Inhibit growth, H37Rv (M. tuberculosis): 90% | Minimal Inhibitory Concentration, M. marinum [3]: 16 µg/mL | Minimal Inhibitory Concentration, M. avium [4]: 125 µg/mL | Minimal Inhibitory Concentration, M. abscessus [5]: 0.25 µg/mL | Minimal Inhibitory Concentration, M. chelonae [6]: 16 µg/mL

O=C(Nc1nc(Cl)c([N+](=O)[O-])s1)c1ccccc1 [VPC162087]
Minimal Inhibitory Concentration, M. smegmatis [2]: 31 µg/mL | % Inhibit growth, MDR (M. tuberculosis): 100% | % Inhibit growth, Susceptible (M. tuberculosis): 97% | % Inhibit growth, XDR (M. tuberculosis): 100% | % Inhibit growth, H37Rv (M. tuberculosis): 97% | Minimal Inhibitory Concentration, M. marinum [3]: 16 µg/mL | Minimal Inhibitory Concentration, M. avium [4]: 125 µg/mL | Minimal Inhibitory Concentration, M. abscessus [5]: >250 µg/mL | Minimal Inhibitory Concentration, M. chelonae [6]: 16 µg/mL

O=C(Nc1nc(Cl)c([N+](=O)[O-])s1)c1cccc(C(F)(F)F)c1 [VPC162088]
MIC [2]: 31 µg/mL (≈ 88.1 µM) | inhibition (M. tuberculosis; [8]): 90% | inhibition (M. tuberculosis; [9]): 70% | MIC [3]: 31 µg/mL (≈ 88.1 µM) | MIC [4]: 250 µg/mL (≈ 711 µM) | MIC [5]: 0.5 µg/mL (≈ 1.42 µM) | MIC [6]: 63 µg/mL (≈ 179 µM)
